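48-hour exposure; five concentrations; linearly interpolated endpoints. GI50 marks 50% less growth. TGI denotes the concentration required for complete inhibition of growth.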
What was measured:
Experiment in all cases: NCI tumour cell line growth inhibition, 48 h
[1] = test system: A498 renal
[2] = test system: EKVX NSCLC
[3] = test system: HOP-62 NSCLC
[4] = test system: HCC-2998 colon
[5] = test system: NCI-H460 lung
[6] = test system: SN12C renal
[7] = test system: DMS 114 small cell lung
[8] = test system: A549 NSCLC
[9] = test system: KM20L2 colon
[10] = test system: SR leukemia
[11] = test system: SNB-19 CNS
[12] = test system: M19-MEL melanoma
[13] = test system: MALME-3M melanoma
[14] = test system: SF-539 CNS
[15] = test system: SW-620 colon
[16] = test system: DLD-1 colon
[17] = test system: CAKI-1 renal
[18] = test system: OVCAR-8 ovarian
[19] = test system: KM12 colon
[20] = test system: NCI-H23 lung
[21] = test system: ACHN renal
[22] = test system: U251 CNS
[23] = test system: SK-OV-3 ovarian
[24] = test system: UACC-62 melanoma
[25] = test system: UACC-257 melanoma
[26] = test system: UO-31 renal
[27] = test system: HOP-92 NSCLC
[28] = test system: OVCAR-5 ovarian
[29] = test system: NCI-H226 lung
[30] = test system: 786-0 renal
[31] = test system: LOX IMVI melanoma
[32] = test system: HL-60(TB) leukemia
[33] = test system: CCRF-CEM leukemia
[34] = test system: TK-10 renal
[35] = test system: HCT-116 colon
[36] = test system: RPMI-8226 leukemia
[37] = test system: SF-268 CNS
[38] = test system: DMS 273 small cell lung
[39] = test system: OVCAR-3 ovarian
[40] = test system: K-562 leukemia
[41] = test system: SK-MEL-28 melanoma
[42] = test system: COLO 205 colon
[43] = test system: HOP-18 NSCLC
[44] = test system: SNB-78 CNS
[45] = test system: OVCAR-4 ovarian
[46] = test system: SK-MEL-2 melanoma
[47] = test system: SF-295 CNS
[48] = test system: M14 melanoma
[49] = test system: LXFL 529 NSCLC
[50] = test system: NCI-H522 lung
[51] = test system: SK-MEL-5 melanoma
[52] = test system: HT29 colon
[53] = test system: XF 498 CNS
[54] = test system: SNB-75 CNS
[55] = test system: HCT-15 colon
[56] = test system: IGROV1 ovarian
[57] = test system: MOLT-4 leukemia
[58] = test system: RXF 393 renal

CC[O-].CC[O-].O=Nc1ccc2cc([O-])ccc2c1.O=Nc1ccc2cc([O-])ccc2c1.[Ti+4]
GI50 [1]: 9.01 µM
TGI [1]: 27.3 µM
GI50 [2]: 3.77 µM
TGI [2]: 11.8 µM
GI50 [3]: 3.3 µM
TGI [3]: 10.5 µM
GI50 [4]: 3.3 µM
TGI [4]: 14.2 µM
GI50 [5]: 3.1 µM
TGI [5]: > 100 µM
GI50 [6]: 1740 nM
TGI [6]: 3.16 µM
GI50 [7]: 1950 nM
TGI [7]: 6.06 µM
GI50 [8]: 2140 nM
TGI [8]: 4.85 µM
GI50 [9]: 2830 nM
TGI [9]: 8.22 µM
GI50 [10]: 10.7 nM
TGI [10]: 2950 nM
GI50 [11]: 3.61 µM
TGI [11]: 13.2 µM
GI50 [12]: 728 nM
TGI [12]: 3.25 µM
GI50 [13]: 1690 nM
TGI [13]: 3.06 µM
GI50 [14]: 1820 nM
TGI [14]: 3.28 µM
GI50 [15]: 1970 nM
TGI [15]: 4.06 µM
GI50 [16]: 2450 nM
TGI [16]: > 21.9 µM
GI50 [17]: 3.76 µM
TGI [17]: 12.2 µM
GI50 [18]: 1470 nM
TGI [18]: 3.28 µM
GI50 [19]: 1940 nM
TGI [19]: 4.65 µM
GI50 [20]: 1460 nM
TGI [20]: 3.19 µM
GI50 [21]: 1580 nM
TGI [21]: 2.96 µM
GI50 [22]: 1770 nM
TGI [22]: 3.48 µM
GI50 [23]: 14.6 µM
TGI [23]: 20 µM
GI50 [24]: 2440 nM
GI50 [25]: 1610 nM
TGI [25]: 3.14 µM
GI50 [26]: 1780 nM
TGI [26]: 3.63 µM
GI50 [27]: 1960 nM
TGI [27]: 6.1 µM
GI50 [28]: 2360 nM
TGI [28]: 3.84 µM
GI50 [29]: 1670 nM
TGI [29]: 3.86 µM
GI50 [30]: 1610 nM
TGI [30]: 3.05 µM
GI50 [31]: 1660 nM
TGI [31]: 4.14 µM
GI50 [32]: 1200 nM
TGI [32]: 3.71 µM
GI50 [33]: 2710 nM
TGI [33]: > 27.3 µM
GI50 [34]: 3.67 µM
TGI [34]: 8.17 µM
GI50 [35]: 1770 nM
TGI [35]: 3.22 µM
GI50 [36]: 1510 nM
TGI [36]: 4.6 µM
GI50 [37]: 2290 nM
TGI [37]: 5.78 µM
GI50 [38]: 1680 nM
TGI [38]: 3.11 µM
GI50 [39]: 1440 nM
TGI [39]: 3.82 µM
GI50 [40]: 2850 nM
TGI [40]: > 100 µM
GI50 [41]: 1810 nM
TGI [41]: 3.4 µM
GI50 [42]: 2200 nM
TGI [42]: 6.54 µM
GI50 [43]: 1490 nM
TGI [43]: 2.82 µM
GI50 [44]: 2790 nM
GI50 [45]: 1760 nM
TGI [45]: 3.2 µM
GI50 [46]: 2130 nM
TGI [46]: 4.75 µM
GI50 [47]: 1800 nM
TGI [47]: 10.5 µM

CC1OC(OC2C(Oc3cc(O)c4c(=O)cc(-c5ccc(O)cc5)oc4c3)OC(CO)C(O)C2O)C(O)C(O)C1O (stereo not drawn)
TGI [1]: > 100 µM
TGI [2]: > 100 µM
TGI [3]: > 100 µM
TGI [48]: > 100 µM
TGI [5]: > 100 µM
TGI [6]: > 100 µM
TGI [7]: > 100 µM
TGI [49]: > 100 µM
TGI [8]: > 100 µM
TGI [9]: > 100 µM
TGI [50]: > 100 µM
TGI [51]: > 100 µM
TGI [11]: > 100 µM
TGI [52]: > 100 µM
TGI [12]: > 100 µM
TGI [13]: > 100 µM
TGI [14]: > 100 µM
TGI [16]: > 100 µM
TGI [17]: > 100 µM
TGI [18]: > 100 µM
TGI [19]: > 100 µM
TGI [20]: > 100 µM
TGI [21]: > 100 µM
TGI [22]: > 100 µM
TGI [23]: > 100 µM
TGI [53]: > 100 µM
TGI [24]: > 100 µM
TGI [25]: > 100 µM
TGI [26]: > 100 µM
TGI [27]: > 100 µM
TGI [28]: > 100 µM
TGI [30]: > 100 µM
TGI [54]: > 100 µM
TGI [31]: > 100 µM
TGI [32]: > 100 µM
TGI [33]: > 100 µM
TGI [34]: > 100 µM
TGI [35]: > 100 µM
TGI [55]: > 100 µM
TGI [36]: > 100 µM
TGI [37]: > 100 µM
TGI [38]: > 100 µM
TGI [39]: > 100 µM
TGI [40]: > 100 µM
TGI [56]: > 100 µM
TGI [41]: > 100 µM
TGI [42]: > 100 µM
TGI [43]: > 100 µM
TGI [57]: > 100 µM
TGI [44]: > 100 µM
TGI [45]: > 100 µM
TGI [46]: > 100 µM
TGI [47]: > 100 µM

CC(=O)OC[C@@H]1[C@H]2CC(=O)O[C@H]2C[C@H]1OC(C)=O
TGI [1]: > 100 µM
TGI [2]: > 100 µM
TGI [3]: > 100 µM
TGI [4]: > 100 µM
TGI [48]: > 100 µM
TGI [5]: > 100 µM
TGI [6]: > 100 µM
TGI [7]: > 100 µM
TGI [49]: > 100 µM
TGI [8]: > 100 µM
TGI [9]: > 100 µM
TGI [50]: > 100 µM
TGI [10]: > 100000 nM
TGI [58]: > 100 µM
TGI [51]: > 100 µM
TGI [11]: > 100 µM
TGI [52]: > 100 µM
TGI [12]: > 100 µM
TGI [13]: > 100 µM
TGI [14]: > 100 µM
TGI [15]: > 100 µM
TGI [16]: > 100 µM
TGI [17]: > 100 µM
TGI [18]: > 100 µM
TGI [19]: > 100 µM
TGI [21]: > 100 µM
TGI [22]: > 100 µM
TGI [23]: > 100 µM
TGI [24]: > 100 µM
TGI [25]: > 100 µM
TGI [26]: > 100 µM
TGI [27]: > 100 µM
TGI [28]: > 100 µM
TGI [30]: > 100 µM
TGI [54]: > 100 µM
TGI [31]: > 100 µM
TGI [32]: > 100 µM
TGI [33]: > 100 µM
TGI [34]: > 100 µM
TGI [35]: > 100 µM
TGI [55]: > 100 µM
TGI [36]: > 100 µM
TGI [37]: > 100 µM
TGI [38]: > 100 µM
TGI [39]: > 100 µM
TGI [56]: > 100 µM
TGI [41]: > 100 µM
TGI [42]: > 100 µM
TGI [43]: > 100 µM
TGI [57]: > 100 µM
TGI [44]: > 100 µM
TGI [45]: > 100 µM
TGI [47]: > 100 µM
